One data set concerns the target human HPK1 (Homo sapiens (Human), UniProt Q92918). Briefly: Kinase activity assay using ADP-Glo method (Method 2). The format is biochemical. Particulars: HPK1 enzyme concentration 0.1 nM; ATP concentration 10 μM. Here is the method:
Method 2: The IC50 value was assayed by the kinase activity assay using ADP-Glo method to evaluate the inhibitory ability of a test compound on human HPK1.
Enzyme buffer conditions: 50 mM Hepes (pH 7.5), 10 mM MgCl2, 1 mM EGTA, 0.01% Brij35, 2 mM DTT. […]
Assay steps: A compound was diluted 4-fold with DMSO in a dilution plate, with a final initial concentration of […] and 10 concentration gradient points. The compound was diluted 50-fold into the kinase reaction buffer, and the mixture was shaken on a shaker for 20 minutes. The kinase was prepared with the enzyme reaction buffer. 2 μL of kinase was added to each well of a reaction plate. 1 μL of the diluted compound in the buffer was added to each well. The plate was sealed with a sealing film, centrifuged at 1000 g for 30 seconds, and placed at room temperature for 10 minutes. The mixed solution of ATP/MBP was prepared with the enzyme reaction buffer. 2 μL of the mixed solution of ATP/MBP was added to the reaction plate. The plate was sealed with a sealing film, and centrifuged at 1000 g for 30 seconds. The mixture in the plate was reacted at room temperature for 60 minutes. […] The plate was incubated at 25° C. for 40 min. […] The plate was incubated at 25° C. for 40 min. The RLU (relative luminescence unit) signal was read with a BMG microplate reader, and the signal intensity was used to characterize the activity of the kinase.
(§1) The kinase activity data were expressed as the comparison of the kinase activity of a group with a test compound and the kinase activity of the blank group (containing only DMSO). The IC50 value was obtained by curve fitting using Prism software (GraphPad7.0).
On the technique in general: ADP-Glo turns the ADP formed in a reaction into a luminescent signal.

The next data set has as its target human GLK (Homo sapiens (Human), UniProt Q8IVH8). Briefly: Kinase activity assay using ADP-Glo method, GLK. The format is biochemical. The note with it: GLK enzyme concentration 8 nM; ATP 20 μM. The procedure: The IC50 value was assayed by the kinase activity assay using ADP-Glo method to evaluate the inhibitory ability of a test compound on human GLK.
Enzyme buffer conditions: 50 mM Hepes (pH 7.5), 10 mM MgCl2, 1 mM EGTA, 0.01% Brij35, 2 mM DTT.
Preparation of the mixture of kinase and substrate: the concentration of GLK in the reaction solution was 8 nM, the concentration of ATP was […], and the concentration of MBP was 0.05 mg/mL.
Assay steps: A compound was diluted 4-fold with DMSO in a dilution plate, with a final initial concentration of […] and 10 concentration gradient points. The compound was diluted 50-fold into the kinase reaction buffer, and the mixture was shaken on a shaker for 20 minutes. The kinase was prepared with the enzyme reaction buffer. 2 μL of kinase was added to each well of a reaction plate. 1 μL of the diluted compound in the buffer was added to each well. The plate was sealed with a sealing film, centrifuged at 1000 g for 30 seconds, and placed at room temperature for 10 minutes. The mixed solution of ATP/MBP was prepared with the enzyme reaction buffer. 2 μL of the mixed solution of ATP/MBP was added to the reaction plate. The plate was sealed with a sealing film, and centrifuged at 1000 g for 30 seconds. The mixture in the plate was reacted at room temperature for 60 minutes. 4 μL of ADP-Glo was transferred to the 384 reaction plate, and centrifuged at 1000 rpm/min for 1 min. The plate was incubated at 25° C. for 40 min. 8 μL of detection solution was transferred to the 384 reaction plate, and centrifuged at 1000 rpm/min for 1 min. The plate was incubated at 25° C. for 40 min. The RLU (relative luminescence unit) signal was read with a BMG microplate reader, and the signal intensity was used to characterize the activity of the kinase.
as §1

Data set [1] in a line: In vitro metabolic stability in human liver microsomes. The note with it: 1 μM compound, 0.5 mg/mL protein. Format: in vitro ADME. The procedure: The in vitro metabolic stability of the compounds of the present disclosure in human was investigated by the metabolic stability in human liver microsomes.
Assay conditions: 1 μM of a compound was incubated with human liver microsomes supplemented with NADPH regeneration system at 37° C. for a certain period of time up to 60 minutes. The concentration of the compound in the resulting sample was assayed by LC-MS/MS method.
Assay procedure: 96-well incubation plates were named T0, T5, T15, T30, T45, T60, Blank60 and NCF60, respectively. The reaction time corresponding to the incubation plates were 0, 5, 15, 30, 45 and 60 minutes, respectively. No test sample or control compound was added to the Blank60 plate, and samples were taken after 60 minutes of incubation. Potassium phosphate buffer was used instead of NADPH regeneration system solution in the NCF60 plate, and the plate was incubated for 60 minutes. All the samples of the time points were from a single well.
5 μL of a test sample or control sample working solution and 100 μL of microsome working solution (the concentration of liver microsome protein was 0.5 mg/mL) were added to the T0, T5, T15, T30, T45, T60 and NCF60 plates, respectively. Only microsome working solution was added to the Blank60 plate. Then, the Blank60, T5, T15, T30, T45 and T60 plates, except TO and NCF60 plates, were placed in a 37° C. water bath, and preincubated for about 10 minutes.
180 μL of stop solution (the stop solution was a solution of tolbutamide (100 ng/mL) in acetonitrile and methanol (95:5, V/V)) was firstly added to the sample of TO plate, and then the NADPH regeneration system working solution was added.
50 μL of potassium phosphate buffer was added to each well of the NCF60 plate, and the plate was incubated for 60 minutes.
After the pre-incubation of Blank60, T5, T15, T30, T45 and T60 plates, 44 μL of NADPH regeneration system working solution was added to each sample well to initiate the reaction. Therefore, for the sample wells containing a test sample or control sample working solution, the final concentration of the reaction was […], the concentration of liver microsomes was 0.5 mg/mL, and the final concentrations of DMSO and acetonitrile in the reaction system were 0.01% (v/v) and 0.99% (v/v), respectively.
After being incubated for an appropriate time (e.g., 5, 15, 30, 45, and 60 min), 180 μL of stop solution was added to each well of the test sample and control sample of Blank60, T5, T15, T30, T45, T60, and NCF60 plates, respectively, to terminate the reaction.
All sample plates were shaken and centrifuged for 10 min. 80 μL of the supernatant of a test sample was taken and diluted into 240 μL of a mixture of acetonitrile and water (1:9, V/V) containing 0.1% formic acid for LC-MS/MS analysis.
By calculating the corresponding time point and the remaining percentage of a compound, the half-life T1/2 and clearance rate CLint(liver) of the compound in human liver microsome metabolism were obtained.

human GLK, sequence (Q8IVH8 whole entry): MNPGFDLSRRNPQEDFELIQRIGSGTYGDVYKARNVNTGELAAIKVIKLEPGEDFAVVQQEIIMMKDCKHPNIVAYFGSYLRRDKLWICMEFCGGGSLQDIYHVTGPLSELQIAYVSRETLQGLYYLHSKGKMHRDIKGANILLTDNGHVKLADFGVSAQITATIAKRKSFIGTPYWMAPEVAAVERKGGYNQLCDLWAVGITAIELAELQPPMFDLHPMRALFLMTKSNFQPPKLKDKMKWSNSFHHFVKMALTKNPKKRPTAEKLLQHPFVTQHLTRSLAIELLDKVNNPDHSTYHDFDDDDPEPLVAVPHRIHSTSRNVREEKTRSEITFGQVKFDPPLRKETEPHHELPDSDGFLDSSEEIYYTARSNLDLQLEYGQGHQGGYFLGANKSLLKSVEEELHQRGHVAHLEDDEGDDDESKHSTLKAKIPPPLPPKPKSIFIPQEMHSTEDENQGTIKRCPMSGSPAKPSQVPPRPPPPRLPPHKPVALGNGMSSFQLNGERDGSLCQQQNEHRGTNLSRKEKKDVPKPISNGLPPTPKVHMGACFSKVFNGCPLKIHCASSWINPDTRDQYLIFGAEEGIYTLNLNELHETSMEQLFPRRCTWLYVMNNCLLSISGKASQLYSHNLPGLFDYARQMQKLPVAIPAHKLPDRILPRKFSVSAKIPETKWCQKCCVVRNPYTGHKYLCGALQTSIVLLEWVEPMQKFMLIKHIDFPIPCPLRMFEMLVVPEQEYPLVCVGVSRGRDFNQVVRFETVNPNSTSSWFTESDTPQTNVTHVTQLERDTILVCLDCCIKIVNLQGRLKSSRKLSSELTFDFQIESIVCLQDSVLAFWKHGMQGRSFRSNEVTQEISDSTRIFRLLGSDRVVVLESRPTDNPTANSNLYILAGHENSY
human HPK1, sequence (Q92918 whole entry): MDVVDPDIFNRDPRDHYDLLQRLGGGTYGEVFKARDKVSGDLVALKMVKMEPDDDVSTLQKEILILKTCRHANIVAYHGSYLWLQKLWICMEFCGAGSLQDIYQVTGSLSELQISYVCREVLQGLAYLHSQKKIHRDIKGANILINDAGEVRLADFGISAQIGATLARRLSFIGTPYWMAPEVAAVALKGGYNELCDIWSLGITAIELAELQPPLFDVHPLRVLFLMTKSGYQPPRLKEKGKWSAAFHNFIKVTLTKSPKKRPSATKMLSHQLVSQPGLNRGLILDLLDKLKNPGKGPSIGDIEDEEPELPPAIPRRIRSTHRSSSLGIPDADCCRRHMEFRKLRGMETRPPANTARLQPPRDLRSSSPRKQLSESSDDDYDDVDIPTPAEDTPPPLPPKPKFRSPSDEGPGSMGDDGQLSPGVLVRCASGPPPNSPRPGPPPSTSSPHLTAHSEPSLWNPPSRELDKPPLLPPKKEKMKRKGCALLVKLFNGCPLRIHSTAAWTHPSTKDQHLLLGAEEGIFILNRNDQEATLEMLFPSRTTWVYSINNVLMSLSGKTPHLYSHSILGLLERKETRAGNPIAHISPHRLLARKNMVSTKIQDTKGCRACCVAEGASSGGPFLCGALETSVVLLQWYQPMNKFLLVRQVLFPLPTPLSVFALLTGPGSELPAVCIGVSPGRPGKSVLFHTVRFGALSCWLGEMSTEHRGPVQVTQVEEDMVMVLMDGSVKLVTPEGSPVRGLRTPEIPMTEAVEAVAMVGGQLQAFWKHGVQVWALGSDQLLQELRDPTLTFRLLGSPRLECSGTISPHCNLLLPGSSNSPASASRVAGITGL

For the molecule `Cn1ccc2c(-c3ncc(Nc4ccc5c(n4)OC[C@@H]4COCCN54)c4c3CNC4=O)ccnc21` [Compound 4], the IC50 (in general, the concentration that gives 50% inhibition) against human HPK1 amounted to 0.62 nM; against human GLK, 594 nM. Further, the “CLint(liver)” value in data set [1] stood at 35 mL/min/kg. Further, in data set [1], the T1/2 worked out at 36 min.
At human HPK1, `O=C1NCc2c(-c3cnc4cc(F)ccn34)ccc(Nc3ccc4c(n3)OC[C@@H]3COCCN43)c21` [Compound 8] had an IC50 of 2 nM. Further, the IC50 on human GLK stood at 154 nM. For the same molecule, in data set [1], the CLint scaled (as a rule, a measure of how fast metabolising enzymes remove a compound, apart from limits set by blood flow) at 1 μM came out at 37 mL/min/kg and the half-life (usually how long it takes for the measured level to halve) at 1 μM was found to be 34 min.
